Each structure is given as a SMILES string. Calls of active or inactive are those of the source.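 Rule for the calls: active = IC50 against T. cruzi CYP51 below a set limit; inactive = the rest.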

These results are taken from PubChem BioAssay AID1159558 (GlaxoSmithKline (GSK), 2015).

For the test, the target named is Sterol 14-alpha demethylase (Trypanosoma cruzi (strain CL Brener)) (UniProt Q7Z1V1). As to the kind of experiment: T. cruzi sterol 14-alpha demethylase inhibition – biochemical, recombinant enzyme, mechanism study for T. cruzi antiparasitic project, dose response (AID 1159558).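 Note: enzyme in bacterial membranes with Anopheles gambiae CYP reductase and cytochrome b5 partners.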 As to conditions: recombinant T. cruzi CYP51, BOMCC fluorescence.
Sterol 14-alpha demethylase (Trypanosoma cruzi (strain CL Brener)), sequence (Q7Z1V1 whole entry, looked up): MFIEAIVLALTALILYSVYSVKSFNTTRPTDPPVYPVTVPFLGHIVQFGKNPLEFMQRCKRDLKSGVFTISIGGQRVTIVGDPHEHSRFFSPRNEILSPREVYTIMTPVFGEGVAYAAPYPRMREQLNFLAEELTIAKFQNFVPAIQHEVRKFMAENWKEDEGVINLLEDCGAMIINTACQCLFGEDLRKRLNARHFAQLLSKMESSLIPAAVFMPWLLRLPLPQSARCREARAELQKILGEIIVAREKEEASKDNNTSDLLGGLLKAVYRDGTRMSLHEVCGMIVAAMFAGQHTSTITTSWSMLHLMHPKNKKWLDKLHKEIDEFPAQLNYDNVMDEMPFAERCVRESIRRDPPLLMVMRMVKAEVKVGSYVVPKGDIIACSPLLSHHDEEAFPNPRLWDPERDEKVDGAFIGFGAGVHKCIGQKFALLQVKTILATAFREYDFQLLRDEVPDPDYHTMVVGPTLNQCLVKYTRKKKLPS
Regarding `Cc1ccc(Nc2nc(C3CCCN3Cc3ccn[nH]3)cs2)nc1` (configuration not stated), the IC50 was 6.3 µM.

Regarding `O=C(Nc1nc(-c2ccccn2)cs1)c1ccc(S(=O)(=O)N2CCCCC2)cc1`, the IC50 was 6.3 µM. Take `O=C(c1cc2cc(Cl)ccc2[nH]1)N1CCCCC1c1cccnc1` (configuration not stated): the IC50 was 0.063 µM. Turning to `O=C(CN(Cc1ccccn1)Cc1ccccn1)NCc1ccc2c(c1)OCO2`, the IC50 was 100 µM. Consider `c1cncc(CN(Cc2ccco2)Cc2cn[nH]c2-c2cccs2)c1`, for which the concentration for half-maximal inhibition (IC50) was 0.079 µM. On to `NCc1ccc2c(Cl)cc(Cl)c(O)c2n1`, for which the IC50 is 40 µM. Take `COc1ccccc1-c1c(C)[nH]c2nc(N)nc(C)c12`: the IC50 is > 100 µM (inactive). For `CC(C)(C)C(=O)Nc1cc(C2CC2)nn1-c1nc2c(c(=O)[nH]1)CCCC2`, the IC50 is > 100 µM (inactive). Regarding `O=c1ccc2ccc(F)c3c2n1C[C@H]3CN1CCN(CC(O)c2cc3c(cn2)OCS3)CC1` (some centres not stated), the IC50 is > 100 µM (inactive). In the case of `O=C(O)[C@H]1C[C@@H]1c1ccc(-c2ccc(CN(CCc3ccccn3)C(=O)C3CCC3)cc2)cc1`, the IC50 was 20 µM.

On to `COc1ccc(Nc2nc(-c3ccccn3)cc(N3CCCC(O)C3)n2)cc1` (configuration not stated), for which the IC50 was 50 µM. As for `Cc1nc(N2CCC(C(=O)N3CCC(O)(c4cccnc4)CC3)CC2)nc2ccc(C(C)C)cc12`, the figure is 0.13 µM. Consider `CS(=O)(=O)NC1CCC(Oc2cc3cnccc3cc2-c2ccsc2)CC1` (configuration not stated), for which the half-inhibitory concentration (IC50) is 0.025 µM. In the case of `Cc1cc(C)c(C#N)c(SCC(=O)c2ccc3c(c2)OCO3)n1`, the IC50 was > 100 µM (inactive). Turning to `CCN(CC)c1ncc(C(=O)c2ccc([N+](=O)[O-])o2)s1`, the IC50 is 40 µM. For `Cc1nn(C)c(Cl)c1CN(Cc1cccnc1)Cc1ccsc1`, the IC50 is 0.063 µM.

Take `Clc1ccc(Sc2cnccc2N2CCOCC2)cc1`: the 50% inhibitory concentration (IC50) is 0.032 µM.

On to `COc1ccc(C2CC(c3ccccc3Cl)=NN2C(=O)CNC(=O)C2CCC2)cc1` (configuration not stated), for which the half-inhibitory concentration (IC50) is 50 µM. Regarding `COc1ccc(-c2cnc(NC(=O)c3cc(-c4ccccn4)n[nH]3)n2C)cc1`, the concentration for half-maximal inhibition (IC50) was 16 µM.

Regarding `COC(=O)c1ccc(-c2cnc3ccc(NCc4ccccn4)nn23)cc1`, the IC50 was 1.3 µM. Consider `N#Cc1ccccc1S(=O)(=O)N1CCN(C(=O)CNC(=O)c2ccc3c(c2)OCO3)CC1`, for which the half-maximal inhibitory concentration (IC50) was 79 µM. Turning to `CCCc1cc(N)nc(-c2cc(CCC)cc(N)n2)c1`, the IC50 was > 100 µM (inactive). Turning to `CC1CN(S(=O)(=O)c2ccc(NC(=O)c3cc(C4CC4)nc4c3cnn4C(C)C)cc2)CC(C)O1` (configuration not stated), the IC50 is > 100 µM (inactive). As for `Fc1ccccc1N1C[C@H]2CCN(c3cccnc3)C[C@H]2C1`, the figure is 0.063 µM; as for `O=C(Nc1cccc(F)c1)N1CCC(Oc2cccc(-c3cccnc3)c2)CC1`, 0.16 µM. In the case of `c1ccc2c(CCOc3nccnc3-c3ccncc3)c[nH]c2c1`, the concentration for half-maximal inhibition (IC50) is 0.063 µM. As for `CNc1nc(C)nc(N2CCc3cc(C(=O)NCc4ccc(-c5ccn[nH]5)cc4Cl)ccc32)n1`, the IC50 is 5 µM. As for `CNc1cncc(C2CCCN2C(=O)Cc2ccc3ccccc3c2)n1` (configuration not stated), the figure is 0.1 µM; as for `Cc1ccc2onc(Nc3ccnc(Nc4cccc(S(C)(=O)=O)c4)n3)c2c1`, 40 µM. The value for `Cc1cccnc1CN1CCN(CCCOc2ccc(-c3ccc(C(N)=O)cc3)cc2)CC1` was > 100 µM (inactive); that for `CN1C(=O)c2ccccc2Sc2ccc(NC(=O)NCc3ccco3)cc21` was 32 µM. On to `O=c1cc(NCCCNCc2cc(C(F)(F)F)cs2)[nH]c2ccccc12`, for which the IC50 is 25 µM.

With `CCc1cc(C(=O)Nc2nccn2-c2ccccc2)cs1`, the IC50 was > 100 µM (inactive).

As to `O=C(COc1nn(-c2ccccc2)c2ncccc12)NCc1ccccc1`, the IC50 was 6.3 µM. Take `COCc1cc(Nc2ccc(Cl)cc2)nc(-c2ccccn2)n1`: the IC50 was > 100 µM (inactive). The value for `COc1ccc2c(Cl)c(C(=O)N3CCC3)sc2c1Cl` was > 100 µM (inactive). Turning to `Nc1ncnc2c1ncn2[C@@H]1O[C@H](CO)C[C@H]1O`, the IC50 is > 100 µM (inactive). For `Cn1ccnc1-c1nc(NCc2ccccc2Cl)cc(C2CC2)n1`, the IC50 is 40 µM. In the case of `COc1cnc2ccc(=O)n(CCN3CCC(NC(=O)Cc4ccc(Cl)c(Cl)c4)CC3)c2c1`, the IC50 was 0.79 µM. For the molecule `Cc1nn(-c2nc(N)nc(-c3ccccn3)n2)c(N)c1-c1ccccc1`, the IC50 is > 100 µM (inactive).

Turning to `CS(=O)(=O)c1ccc(CC(=O)Nc2nc(-c3ccc(Cl)s3)cs2)cc1`, the IC50 is > 100 µM (inactive). `NCC(Cc1ccccc1)NC(=O)c1cnc(-c2c[nH]c3ncccc23)s1` (configuration not stated): the 50% inhibitory concentration (IC50) was 1 µM.

As to `Cc1cc(Nc2cc(C3CC3)[nH]n2)nc(N2CCCC2)n1`, the IC50 is > 100 µM (inactive). Consider `O=C(N[C@H](CO)c1ccccc1)c1ccc(-c2c[nH]c3nccc(C(F)(F)F)c23)s1`, for which the half-inhibitory concentration (IC50) was 6.3 µM.

`Cc1[nH]nc(C(F)(F)F)c1NC(=O)CCn1cc(Cl)c([N+](=O)[O-])n1`: the IC50 is > 100 µM (inactive). As to `O=C1CN(C2CCCc3c(OCc4ccncc4)cccc32)C(=O)N1C1CCCCC1` (configuration not stated), the 50% inhibitory concentration (IC50) is 0.02 µM. Take `CNC(=O)C1Cc2ccccc2N1C(=O)Cc1ccc(F)cc1` (configuration not stated): the IC50 was > 100 µM (inactive).

On to `Cc1nn(-c2nc(N)nc(-c3ccccn3)n2)c(C)c1Cc1ccccc1`, for which the IC50 is 63 µM. Turning to `COc1ccc(C(=O)N2CCC(Nc3cccnc3)C2)c(OC)n1` (configuration not stated), the half-maximal inhibitory concentration (IC50) is 0.063 µM.

With `CN(C)S(=O)(=O)c1ccc(Cl)c(C(=O)Nc2nc(-c3ccccn3)cs2)c1`, the 50% inhibitory concentration (IC50) is 32 µM.

Take `CCN(Cc1cccs1)C(=O)CSc1nnc(-c2ccc3c(c2)OCO3)o1`: the IC50 was 7.9 µM. For the molecule `C=CC[C@@H]1CC=C[C@@H](C)N1C(=O)CCc1nnc(-c2ccc3c(c2)OCO3)o1`, the IC50 is 40 µM. As for `O=C(CN(c1cccc(C(F)(F)F)c1)S(=O)(=O)c1ccc(Cl)cc1)NCc1ccc(F)c(F)c1`, the figure is 0.16 µM; as for `COc1ccc(CN2CCCCC2c2nc(-c3cccnc3)no2)cc1` (configuration not stated), 0.2 µM. With `COc1cc(Nc2nccc(Nc3onc(C)c3C)n2)cc(S(=O)(=O)C2CCOCC2)c1`, the 50% inhibitory concentration (IC50) is 7.9 µM. As to `CCOc1ccc(CN(C)Cc2nc(N)nc(Nc3ccc(C)cc3)n2)cc1`, the IC50 is 16 µM. The value for `CC(C)Nc1nc(Cl)nc2ccccc12` was > 100 µM (inactive); that for `COc1ccc(Cl)cc1CC(=O)Nc1n[nH]c(-c2ccccn2)n1` was > 100 µM (inactive). For `O=S(=O)(c1cccc(CSc2nnc(-c3ccc4c(c3)OCO4)o2)c1)N1CCOCC1`, the IC50 is 13 µM.

Regarding `O=C(CC1(O)C(=O)N(Cc2ccccc2)c2ccc(Br)cc21)c1cccnc1` (configuration not stated), the IC50 was 4 µM. Take `CC(C(=O)Nc1ccccc1F)N(C)CC(=O)Nc1cccc2ccccc12` (configuration not stated): the IC50 is 16 µM. For `Clc1cc(Br)ccc1OCCCCn1ccnc1`, the IC50 was 0.063 µM. The value for `COc1ccccc1C1CC(c2ccc(NS(C)(=O)=O)cc2)=NN1C(=O)c1cccs1` (configuration not stated) was 25 µM. As to `O=C(Nc1ccccc1)Nc1nc(-c2ccccn2)cs1`, the IC50 is 32 µM. Take `O=C(Nc1nc(-c2ccc(S(=O)(=O)N3CCOCC3)cc2)cs1)c1ccc([N+](=O)[O-])cc1`: the IC50 was > 100 µM (inactive). As to `O=C(Nc1cccc(Cl)c1)N1CCCCC1c1cccnc1` (configuration not stated), the half-maximal inhibitory concentration (IC50) is 0.02 µM. On to `Cc1c([N+](=O)[O-])c(C(=O)Nc2sc3c(c2C#N)CCC(C)C3)nn1C` (configuration not stated), for which the IC50 was > 100 µM (inactive). On to `c1ccc(Nc2nc(-c3ccccn3)cc(N3CCOCC3)n2)cc1`, for which the IC50 is > 100 µM (inactive).

As for `O=C(Nc1nc2cc(Cl)ccc2o1)c1cccc(Cl)c1`, the IC50 was > 100 µM (inactive). `CC(=O)Nc1cccc(Nc2ncnc3nc[nH]c23)c1`: the IC50 is > 100 µM (inactive).

As to `COc1ccc(-c2csc(NC(=O)c3ccc([N+](=O)[O-])s3)n2)cc1`, the IC50 is > 100 µM (inactive). As to `NS(=O)(=O)c1ccc(Nc2nccc(-c3cnn4ncccc34)n2)cc1`, the IC50 is > 100 µM (inactive). Take `COc1ncc(-c2ccc3nccc(-c4ccncc4)c3c2)cc1NS(C)(=O)=O`: the half-inhibitory concentration (IC50) was 79 µM.

In the case of `Nc1nc(-c2ccccn2)nc(-n2nc(-c3ccccc3)cc2N)n1`, the IC50 is > 100 µM (inactive). With `CC(C)N(C(=O)CN1C(=O)C(N)C(=O)N(c2ccccc2)c2ccccc21)c1ccccc1` (configuration not stated), the half-inhibitory concentration (IC50) is 0.32 µM. In the case of `CCC(CC)C(=O)Nc1ccc(-c2nnc(-c3ccc(OC)cc3)o2)cc1`, the IC50 is 13 µM.

Regarding `C[C@@H](Oc1cc(-n2cnc3ccc(C(O)CO)cc32)sc1C(N)=O)c1ccccc1C(F)(F)F` (some centres not stated), the 50% inhibitory concentration (IC50) was 25 µM. As for `CN(C)CCN(C)Cc1ccc(F)cc1NS(=O)(=O)c1ccc(Cl)c(Cl)c1`, the figure is > 130 µM (inactive). As for `Cc1nc2c(-c3cccs3)c(C)nn2c(NCCO)c1C`, the IC50 was > 100 µM (inactive). With `O=C(Nc1ccccc1C(=O)Nc1ccccn1)c1ccco1`, the IC50 is > 100 µM (inactive). Consider `COc1ncc(-c2ccc3nccc(-c4ccncc4)c3c2)cc1NS(=O)(=O)C1CC1`, for which the half-maximal inhibitory concentration (IC50) was 7.9 µM. In the case of `COCc1cnc2c(c1SCc1c(F)cccc1Cl)c(=O)n(C)c(=O)n2C`, the IC50 was 25 µM. On to `COc1ccc2ncc(F)c(NC(=O)C3(O)CCC(NCc4ccc5c(c4)OCCO5)CC3)c2n1` (configuration not stated), for which the IC50 is 63 µM. As to `Cc1nc(-c2ccncc2)ncc1C(C)NC(=O)c1ccc(Cl)s1` (configuration not stated), the IC50 is 0.79 µM. The value for `CCN(CC)S(=O)(=O)c1ccc(Cn2nc(C(=O)Nc3ccncn3)c3ccccc32)cc1` was 0.16 µM. Regarding `Cc1cccnc1NC(=O)c1cccc(OCc2c(C)noc2C)c1`, the IC50 was 50 µM. Consider `O=C(NCC1CCCCC1)c1cc(=O)c2ccccc2o1`, for which the IC50 was > 100 µM (inactive).

In the case of `Cc1nn(-c2nc3ccccc3[nH]2)c2c1C(c1ccc(O)cc1)CC(=O)N2` (configuration not stated), the half-inhibitory concentration (IC50) was 25 µM. Regarding `Cc1ccccc1OCC(=O)N1CCCN(c2cccnn2)CC1`, the IC50 was 0.079 µM.

Turning to `Cc1nc(C(=O)Nc2ccc3c(c2)OCO3)nn1-c1ccc(F)cc1`, the IC50 is 40 µM. As for `O=C(CSc1ccc(F)cc1)N[C@@H](Cc1cnc[nH]1)C(=O)NCCc1ccccc1`, the figure is 0.079 µM; as for `CCc1ccccc1[C@@H](C)NC(=O)c1cnc2c(cnn2CC)c1NC1CCN(C(N)=O)CC1`, 79 µM.
